Results on one compound are retold here after patent US20260166029A1, “METHODS AND SYSTEMS FOR TREATING DISEASE USING AN ATR/CHK1 SIGNALING PATHWAY INHIBITOR” (Acrivon Therapeutics, Inc., priority 2022, published 2026).

SMILES strings stand for the structures. Values joined by “and” are separate entries in the source; they are usually repeats but may differ in a detail not shown here. Equal values may be shown once. Read-outs that look alike come from different tables or passages of the source. Where only a bound is given, the exact number is not on record here.

For one data set, the system named is SCLC. To be noted: cited from earlier work.
For data set [1], the system named is head and neck, anal, and ovarian cancer. The conditions noted are these: cited from earlier work.
Another data set has as its system OVCAR3 cells. Nature of the data set: Cell Titer Glo 2.0 viability after biomarker siRNA knockdown (Example 6). Format: cell-based. To be noted: Homo sapiens, OVCAR-3, 72 h, read-out: absolute EC50. Here is the method:
OVCAR3 cells cultured in RPMI medium with 20% FBS were transfected with siRNA (Silencer Select, cat #4390824, ThermoFisher) targeting TRIM28 (KAP1) CCNE1, CCNA2, or CHEK2, as compared with a negative control siRNA (cat #4390843, ThermoFisher) using RNAiMAX transfection reagent (ThermoFisher). Twenty-four hours after the transfection, cells were reseeded into 384-well plates and left to adhere for 24 hours before being treated with increasing doses of prexasertib. Relative cell viability against a DMSO control was assessed 72 hours after drug treatment using Cell Titer Glo 2.0 (Promega) and a SpectraMax microplate reader. Error bars represent standard deviations from quadruplicate samples.
A general note: ATP-based viability assays read luminescence as a measure of living cells.

Another data set has as its system HCT116. The conditions noted are these: HCT116 cell line; external data from prior publications; cited from earlier work.
In data set [2] the test system is metastatic high-grade serous ovarian cancer. Nature of the data set: Observed response in phase 2 clinical trials, patients with FFPE pre-treatment biopsies (Example 5). Format: in vivo, human. Also noted: key to RECIST response category: SD: stable disease;; PR: partial response;; PD: progressive disease;. The conditions noted are these: for RECIST Responder: RECIST response = PR or CR. The text has this:
Biopsy samples from several independent clinical phase 2 studies were merged for this analysis based on availability. Study JTJN (NCT03414047) was a large multicenter, multi-country, non-randomized, parallel cohort, Phase 2 study of prexasertib in subjects with advanced stage, high grade serous ovarian, primary peritoneal, or fallopian tube cancer. Several single-center phase 2 studies sponsored by NCI of prexasertib in BRCA ½ wild-type or BRCA ½ mutant recurrent high-grade serous ovarian cancer (NCT02203513) provided additional FFPE samples; see Lee, Lancet Oncol. 19(2): 207-215 (2018). To evaluate whether a provided Response-Predictive Signature can successfully predict patient responders, sections of pre-treatment tumor biopsies were stained blinded to treatment outcome using antibodies against three biomarkers (biomarker 1 (BM1) Ser296 phosphorylated Chk1, biomarker 2 (BM2) Ser473 phosphorylated Kap1, and biomarker 3 (BM3) total cyclin E1) and imaged using immunofluorescence microscopy. The tumor samples were additionally stained using an antibody against cytokeratin in order to identify and distinguish tumor cells of interest from the surrounding stroma and stained with DAPI to identify cell nuclei.
The Response-Predictive Signature was evaluated by comparing predicted response to prexasertib of each patient to observed response in the clinical trials (Table 8, FIG. 15). Observed clinical trial responses were provided separately to the third party biostatistician. They were classified according to RECIST criteria as complete response (CR), partial response (PR), stable disease (SD), or progressive disease (PD). Additionally, the observed treatment outcome was quantified based on the maximum fractional change in tumor volume after treatment (Table 8, FIG. 15). […] Clinical RECIST responder rate (PR or CR) among those predicted by the Response-Predictive Signature to be non-responders was 5%. Clinical RECIST responder rate (PR or CR) among those predicted by the Response-Predictive Signature to be responders was 58%. This 58% represented a substantial responder-enrichment over the overall unenriched response rate of 25%.

The mark [3] stands for this setting: individual patients predicted non-responder (NR).
[4] abbreviates: individual patients predicted responder (R).

In the case of `COc1cccc(OCCCN)c1-c1cc(Nc2cnc(C#N)cn2)n[nH]1` [prexasertib, 5-(5-(2-(3-aminopropoxy)-6-methoxyphenyl)-1H-pyrazol-3-ylamino)pyrazine-2-carbonitrile], the ORR in trials is given as 0% (platinum with SCLC (platinum resistant) and 5% (platinum in the data set with SCLC (platinum sensitive). In addition, the “Response rates in clinical trials” value in data set [1] (across cancers, including head and neck, anal, and ovarian cancer, single agent) was 5-20%. Besides, the Side effects entry in data set [1] (patients, reversible, common, hematological, mechanism-based myelosuppression) is “neutropenia, thrombocytopenia, and anemia”. In addition, the EC50 (as a rule, the midpoint of the concentration-response curve) is 31 nM in the data set with OVCAR3 cells (BM1 (CHEK2 (Chk2)) siRNA knockdown); more than 10000 nM with OVCAR3 cells (BM2 (TRIM28 (KAP1)) siRNA knockdown); 164 nM with OVCAR3 cells (BM3 (CCNA2 (cyclin A2)) siRNA knockdown); more than 10000 nM in the data set on OVCAR3 cells (BM3 (CCNE1) siRNA knockdown); 12 nM in the data set with OVCAR3 cells (negative control siRNA in the BM1 (CHEK2 (Chk2)) knockdown experiment); 100 nM in the data set with OVCAR3 cells (negative control siRNA in the BM2 (TRIM28 (KAP1)) knockdown experiment). Also, the EC50 was 24 nM in the data set on OVCAR3 cells (negative control siRNA in the BM3 (CCNA2 (cyclin A2)) knockdown experiment), 25 nM in the data set with OVCAR3 cells (negative control siRNA in the BM3 (CCNE1 (cyclin E1)) knockdown experiment) and 100 nM in the data set with HCT116. Moreover, the “overall unenriched response rate” value in data set [2] (all patients of the FFPE cohort) is given as 25%. Moreover, the “Clinical RECIST responder rate (PR or CR)” value in data set [2] (among those predicted by the Response-Predictive Signature to be non-responders) is reported as 5%; in data set [2] (among those predicted by the Response-Predictive Signature to be responders), 58%. The “Best Tumor Shrinkage (fraction from baseline)” value in data set [2] (setting [3]) was 0.048 and 0.159 and −0.037 and −0.118 (2×) and 0.353 and −0.024 and −0.077 and 0 (2×) and 0.342 and 0.105 and −0.192 and 0.146 and −0.012 and 0.015 and 0.24 and 0.1 and 0.04 and 0.01; in data set [2] (setting [4]) it was 0.146 and 0 and 0.441 and 0.52 and 0.584 and −0.287 and 0.038 and 0.492 and 0.59 and 0.35 and 0.14 and 0.444. Besides, the RECIST response category result is “SD (16×) and PD (3×) and PR” in data set [2] (setting [3]); “SD (4×) and PR (7×) and PD” in data set [2] (setting [4]). The “RECIST Responder” value in data set [2] (setting [3]) is “FALSE (19×) and TRUE”; in data set [2] (setting [4]), “FALSE (5×) and TRUE (7×)”.
